Source: patent publication US5132291A, “Antivirals and methods for increasing the antiviral activity of AZT” (priority 1989, dated 1992)
Read-outs that look alike come from different tables or passages of the source.

Key:
[1] = test system: AIDS virus; details: cited from earlier work
[2] = test system: SAH hydrolase; test: SAH hydrolase inhibition; assay type: biochemical
Description: The effect of incubation time and AICA riboside concentration on SAH hydrolase activity was determined as follows. Five samples of SAH hydrolase were incubated at the following AICA riboside concentrations: 0, 10, 25, 50 and 100 μM. The incubation buffer consisted of 25 mM potassium phosphate pH 7.0, 1 mM EDTA, 1 mM, DTT and 0.04% BSA. The total enzyme added to incubation mixture was 10 μg. At indicated times, 10 μl of sample was withdrawn and assayed in the following assay system: 25 mM potassium phosphate, pH 7.0, 40 mM DL-Homocysteine, 1 mM EDTA, 1 mM DTT, 10 μM EHNA, 0.1% BSA and 10 μM U-^14 C Adenosine (590 m Ci/mmole). The reaction was stopped by adding 15 μl of 30% TCA. The samples were then centrifuged and 15 μl were removed and applied to Kodak cellulose 13254 TLC plates along with SAH and adenosine markers. The plates were then developed in a solvent system of 1-butanol:methanol:H2 O:ammonium hydroxide (60:20:20:2). The adenosine and S-adenosyl homocysteine were visualized under UV light and the spots were cut from the plate. Radioactivity of the spots was determined by liquid scintillation spectrometry. From a plot of the reciprocal of Kinactivation vs. 1/AICA riboside concentration the values of Ki (X-intercept) and Kmax (Y-intercept), were determined (FIG. 10(b)).

[3] = test system: HIV; test: HIV syncitial forming assay using SupT-1 cells; assay type: cell-based
Description: The assay was performed following the procedure described in Example Three except that SupT-1 cells were used. Using the SupT-1 cells, the medium was not changed at day 5 post-infection and the syncitia were counted at day 5 post-infection at 40X. The results are plotted in FIGS. 5, 6(b), and 7.

[4] = test system: BAG vector pseudotyped by MA (amphotrophic murine leukemia virus); test: U937/BAG+MA colony resistance assay titered on 208F rat fibroblasts; assay type: cell-based; details: 0.01 μM AZT
Description: A second, similar assay system was utilized in which a human macrophage line (U937) carrying the BAG retroviral vector construct (having neomycin resistance and beta-galactosidase marker genes), Cepko, PNAS, Vol. 84, p. 156-160 (1987), was infected with MA (amphotrophic MLV [murine leukemia virus]). MA was used to pseudotype the replication-defective BAG vector, which was then titered on 208F cells. According to this assay, the results of which are shown in FIG. 1c, 0.01 μM AZT and 500 μM AICA riboside were both effective against murine retroviruses. […]
(§1) In this colony-forming bioassay for the characterization of antiviral compounds against retroviruses, a replication-defective retroviral vector construct having the ability to confer neomycin-resistance (U937/BAG or N2) is psuedotyped, infects a single cell, and under neomycin selection, allows the recipient cell to form a colony. Since each infection yields a neomycin-resistant cell capable of producing a discrete group of cells, colonies can be counted, resulting in a linear relationship between the number of colonies and the first order of virus concentration. […]
After drying, the plates were stained with 2 ml of 1:20 Glemsa (Sigma) for 1 hour. […] All colonies containing 50 or more cells were scored.

[5] = cited from earlier work
[6] = test system: N2 virus (replication-defective murine leukemia virus construct); test: N2 colony resistance assay on 208F rat fibroblasts; assay type: cell-based; details: 0.01 μM AZT compared with 500 μM AICA riboside
Description: As described in Example Two, several retroviral assay systems were utilized to test the antiviral activity of various purine nucleoside compounds. One assay system employed a replication-defective murine leukemia virus construct "N2") containing a selectable marker (the neomycin resistance gene). The N2 virus construct is present in the producer or "helper" cell line also called N2 which contains a second retroviral construct that encodes for the production of the retrovirus proteins necessary for packaging and which can, therefore, psuedotype the N2 vector into an infective amphotrophic murine retrovirus. […]
as §1
Neomycin selection (500 μg/ml) was begun the next day and continued for eight days post-infection, changing the media three times per week. […] All colonies with 50 or more aggregate cells were counted.

[7] = test system: HIV-1; test: HIV syncitial forming assay using CEM-SS cells; assay type: cell-based; details: AZT 0.01 μM and 0.1 μM, 24 hour preincubation before HIV infection
Description: The following cytomorphologic infectivity bioassay was used to characterize antiviral activity against HIV-1. In the following assay a single infectious unit of virus infects a single cell and initiates a focal expression of that infection, i.e., a syncitium. Since a single infectious unit leads to a discrete response, a linear relationship exists between the number of virally-induced cytopathic effects and the first order of virus concentration. Application of this procedure in assays for virus inactivation allows for evaluation of the candidate antiviral agent.
CEM-SS (syncitium-sensitive Leu 3a-positive CEM cell line) cells were grown in RPMI 1640 cell culture media (Irvine Scientific) supplemented with 10% heat-inactivated fetal bovine serum (Gemini Bioproducts) and 1% […] glutamine (Gibco). Log-phase cells were split 1:2 with the growth medium the day prior to setting up the assay to standardize plating conditions and to assure a population of logarithmically growing cells. Ninety-six-well plates (Costar) were pretreated with 50 μl of 50 μg/ml poly-1-lysine (MW=295,000 Sigma) "PLL") and were left at room temperature for 60 minutes. Residual PLL was removed with two washes of PBS. The plates were stored in the incubator until used.
On the day of the assay, the cells were counted and enough cells were harvested to plate each well with 5.0×10^4 cells per well in a volume of 200 μl (or 20 ml of […] was appropriate for each 96-well microtitre plate).
The cells were plated out on the PLL pre-treated microtitre plates at 5.0×10^4 cells/well in a volume of 200 μl. After allowing attachment for 30 minutes at 37° C. and 5% CO2, the antiviral agent(s) were added in the noted amounts and the treated plates were pre-incubated for 24 hours.
The HIV-1 virus stock (isolated from infected H-9 cells) was diluted in growth medium to yield 100 SFU (syncytial-forming units) per well. Diluted HIV-1 virus, 20 μl, was added to appropriate wells. All the plates were then incubated for 5 days at 37° C. and 5% CO2. On day 5 post-infection, the cells were given a 100 μl media change. […]

[8] = test system: peripheral blood macrophages; details: cited from earlier work

SMILES: NC(=O)c1ncn([C@@H]2O[C@H](CO)[C@@H](O)[C@H]2O)n1 [ribavirin]
- decrease of phosphorylation of AZT to the mono-, di-, and triphosphate forms ([1]; AIDS infected and uninfected cells): approximately a factor of ten
- effect on effectiveness of AZT against the AIDS virus ([1]; peripheral blood lymphocytes and H9 cells): reduced the effectiveness of AZT

SMILES: NC(=O)c1nc[nH]c1N [AICA]
- inhibition of SAH hydrolase [2]: very potent inhibitors
- inhibition of SAH hydrolase ([2]; even at a concentration as low as 10 μM): potent inhibitors

SMILES: Cc1cn([C@H]2C[C@H](N=[N+]=[N-])[C@@H](CO)O2)c(=O)[nH]c1=O [AZT, 3'azido-3'deoxythymidine]
- effectiveness against the AIDS virus (prevention of syncitial formation) ([3]; AZT 0.01 μM-1 μM, 7200 min): less than 100%
- inhibition at 10 µM ([3]; Human immunodeficiency virus 1, SUP-T1, 120 h, read-out: effectiveness against the AIDS virus (prevention of syncitial formation)): 100%
- effectiveness against murine retroviruses [4]: effective
- patients with macrocytic anemia ([5]; CD4 (T4) lymphocyte count ≤200/mm^3): up to 45%
- patients with granulocytopenia ([5]; CD4 count >200/mm^3): up to 40%
- patients with granulocytopenia ([5]; CD4 count ≤200/mm^3): up to 55%
- antiviral activity (neomycin-resistant colonies) [6]: somewhat better antiviral activity than 500 μM AICA riboside
- antiviral effect (number of syncitia) [7]: antiviral effects
- accumulation of AZT nucleotides in macrophages as compared to CEM [8]: nine-fold lower
